Values of other authors as cited in PubChem BioAssay AID1259409 (Chemical Carcinogenesis Research Information System (CCRIS), 2018).

Tested on: rodent chemically induced tumor inhibition, incidence and multiplicity
Experiment: CCRIS tumor inhibitor studies
Details: Route [Inhibitor]: ORAL

Structure (SMILES)	tumour outcome (control, treated, inhibition, significance) (Carcinogen: 7,12-DIMETHYLBENZ[A]ANTHRACENE, 57-97-6, Dose [Inhibitor]: 0, 2% IN DIET FOR THE DURATION OF STUDY BEGINNING 1 WK PRIOR TO CARCINOGEN DOSE (STUDY DURATION: 105 WK), Species: RAT, Strain/Sex: SPRAGUE-DAWLEY/FEMALE, Target Tissue: Type of Lesion: MAMMARY GLAND: TUMOR, Dose [Carcinogen]: 15 MG IN 1 ML SESAME OIL ONCE, Promoter: NONE USED)	tumour outcome (control, treated, inhibition, significance) (Carcinogen: 7,12-DIMETHYLBENZ[A]ANTHRACENE, 57-97-6, Dose [Inhibitor]: 0, 128 MMOL/KG OF DIET FOR 15.5 WK BEGINNING 10 D POST CARCINOGEN DOSE (STUDY DURATION: 17 WK), Species: RAT, Strain/Sex: SPRAGUE-DAWLEY/FEMALE, Target Tissue: Type of Lesion: MAMMARY GLAND: TUMOR, Dose [Carcinogen]: 15 MG IN 1 ML OF SESAME OIL ONCE AT 50 D OF AGE, Promoter: NONE USED)	tumour outcome (control, treated, inhibition, significance) (Carcinogen: 7,12-DIMETHYLBENZ[A]ANTHRACENE, 57-97-6, Dose [Inhibitor]: 0, 128 MMOL/KG OF DIET FOR 18.5 WK BEGINNING 10 D PRIOR TO CARCINOGEN DOSE (STUDY DURATION: 18.5 WK), Species: RAT, Strain/Sex: SPRAGUE-DAWLEY/FEMALE, Target Tissue: Type of Lesion: MAMMARY GLAND: TUMOR, Dose [Carcinogen]: 15 MG IN 1 ML OF SESAME OIL ONCE AT 50 D OF AGE, Promoter: NONE USED)	tumour outcome (control, treated, inhibition, significance) (Carcinogen: 7,12-DIMETHYLBENZ[A]ANTHRACENE, 57-97-6, Dose [Inhibitor]: 0, 128 MMOL/KG OF DIET FOR 20 D BEGINNING 10 D PRIOR TO CARCINOGEN DOSE (STUDY DURATION: 18.5 WK), Species: RAT, Strain/Sex: SPRAGUE-DAWLEY/FEMALE, Target Tissue: Type of Lesion: MAMMARY GLAND: TUMOR, Dose [Carcinogen]: 15 MG IN 1 ML OF SESAME OIL ONCE AT 50 D OF AGE, Promoter: NONE USED)	tumour outcome (control, treated, inhibition, significance) (Carcinogen: 7,12-DIMETHYLBENZ[A]ANTHRACENE, 57-97-6, Dose [Inhibitor]: 32 MMOL/KG OF CHOW DIET IN 25 ML OF THE VEHICLE (ETHANOL/TRICAPRYLIN 1:4 (VOL/VOL) PLUS 6% (WT/VOL) ALPHA-TOCOPHEROL) BE, Species: RAT, Strain/Sex: SPRAGUE-DAWLEY/FEMALE, Target Tissue: Type of Lesion: MAMMARY GLAND: TUMOR, Dose [Carcinogen]: 75 MG/KG BW IN 1.0 ML SESAME OIL ONCE, Promoter: NONE USED)	tumour outcome (control, treated, inhibition, significance) (Carcinogen: 7,12-DIMETHYLBENZ[A]ANTHRACENE, 57-97-6, Dose [Inhibitor]: 64 MMOL/KG OF CHOW DIET IN 25 ML OF THE VEHICLE (ETHANOL/TRICAPRYLIN 1:4 (VOL/VOL) PLUS 6% (WT/VOL) ALPHA-TOCOPHEROL) BE, Species: RAT, Strain/Sex: SPRAGUE-DAWLEY/FEMALE, Target Tissue: Type of Lesion: MAMMARY GLAND: TUMOR, Dose [Carcinogen]: 75 MG/KG BW IN 1.0 ML SESAME OIL ONCE, Promoter: NONE USED)	tumour outcome (control, treated, inhibition, significance) (Carcinogen: 7,12-DIMETHYLBENZ[A]ANTHRACENE, 57-97-6, Dose [Inhibitor]: 128 MMOL/KG OF CHOW DIET IN 25 ML OF THE VEHICLE (ETHANOL/TRICAPRYLIN 1:4 (VOL/VOL) PLUS 6% (WT/VOL) ALPHA-TOCOPHEROL) B, Species: RAT, Strain/Sex: SPRAGUE-DAWLEY/FEMALE, Target Tissue: Type of Lesion: MAMMARY GLAND: TUMOR, Dose [Carcinogen]: 75 MG/KG BW IN 1.0 ML SESAME OIL ONCE, Promoter: NONE USED)	tumour outcome (control, treated, inhibition, significance) (Carcinogen: AZOXYMETHANE [25843-45-2], Dose [Inhibitor]: 3.5% IN DIET FOR 38 WK BEGINNING 1 WK POST LAST CARCINOGEN DOSE (STUDY DURATION: 40 WK), Species: RAT, Strain/Sex: F344/MALE, Target Tissue: Type of Lesion: COLON: TUMOR, Dose [Carcinogen]: 15 MG/KG BW 1X/WK FOR 2 WK (STUDY DURATION: 40 WK), Promoter: NONE)	tumour outcome (control, treated, inhibition, significance) (Carcinogen: N-BUTYL-N-(4-HYDROXYBUTYL)NITROSAMINE, 3817-11-6, Dose [Inhibitor]: 1.5 MMOL/KG DIET DAILY FOR 159 D STARTING 1 WK AFTER THE FINAL CARCINOGEN DOSE (STUDY DURATION: 216 D), Species: MOUSE, Strain/Sex: BDF/MALE, Target Tissue: Type of Lesion: URINARY BLADDER: TRANSITIONAL CELL CARCINOMA, Dose [Carcinogen]: 7.5 MG 1/WK FOR 8 WK, Promoter: NONE USED)	tumour outcome (control, treated, inhibition, significance) (Carcinogen: N-BUTYL-N-(4-HYDROXYBUTYL)NITROSAMINE, 3817-11-6, Dose [Inhibitor]: 1.5 MMOL/KG/D IN DIET FOR 159 D STARTING 1 WK POST CARCINOGEN TREATMENT (STUDY DURATION: 216 D), Species: MOUSE, Strain/Sex: BDF/MALE, Target Tissue: Type of Lesion: URINARY BLADDER: TRANSITIONAL CELL CARCINOMA, Dose [Carcinogen]: 7.5 MG 1/WK FOR 8 WK, Promoter: NONE USED)
O=C(O)[C@@H](O)[C@@H](O)[C@H](O)[C@@H](O)C(=O)O	88%, 80%, 9%, not significant	92%, 58%, 37%, not calculated	83%, 50%, 40%, not calculated	100%, 82%, 18%, not calculated	70%, 55%, 21%, not significant	70%, 55%, 21%, not significant	70%, 35%, 50%, not significant	15/26 (57.7%), 6/24 (25.0%), 57%, p<0.05	–	–
CC1=C(/C=C/C(C)=C/C=C/C(C)=C\C(=O)Nc2nn[nH]n2)C(C)(C)CCC1	–	–	–	–	–	–	–	–	29/98 (30%), 26/100 (26%), 13%, not significant	29/98 (30%), 26/100 (26%), 13%, not significant
